ChEMBL document CHEMBL4359816, “Discovery and Optimization of Quinolinone Derivatives as Potent, Selective, and Orally Bioavailable Mutant Isocitrate Dehydrogenase 1 (mIDH1) Inhibitors” (J Med Chem, 2019)
≈ marks a conversion by molar mass, not a printed value.

Columns and labels:
[1] = Total Cmax in mouse at 1 mg/kg, iv or 5 mg/kg, po; type: ADME, organism-based; conditions: in vivo
[2] = Kinetic solubility of the compound; type: physicochemical; conditions: read-out: Kinetic_solubility
[3] = Clearance in dog at 0.5 mg/kg, iv; type: ADME, organism-based, Canis lupus familiaris; conditions: in vivo
[4] = molecular target: PXR (Homo sapiens, UniProt O75469); test: Activation of PXR (unknown origin) stably expressed in human HepG2 cells at 10 uM relative to rifampicin; type: ADME, cell-based; conditions: HepG2 cells stably expressing PXR, read-out: Activity
Chain of PXR (O75469 whole entry): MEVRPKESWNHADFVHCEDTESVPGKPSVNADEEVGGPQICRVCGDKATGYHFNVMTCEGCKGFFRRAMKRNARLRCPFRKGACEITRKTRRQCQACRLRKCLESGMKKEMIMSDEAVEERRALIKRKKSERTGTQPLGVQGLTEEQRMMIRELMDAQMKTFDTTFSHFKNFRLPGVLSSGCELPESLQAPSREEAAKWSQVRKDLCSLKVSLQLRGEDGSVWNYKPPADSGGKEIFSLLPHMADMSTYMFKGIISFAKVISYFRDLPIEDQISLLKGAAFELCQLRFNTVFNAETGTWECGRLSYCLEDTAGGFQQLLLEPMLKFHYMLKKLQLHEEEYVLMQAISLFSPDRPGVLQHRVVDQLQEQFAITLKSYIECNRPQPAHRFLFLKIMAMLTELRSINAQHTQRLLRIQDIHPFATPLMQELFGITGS

[5] = Cmax in rat at 1 mg/kg, iv or 5 mg/kg, po; type: ADME, organism-based; conditions: in vivo
[6] = Octanol/aqueous buffer partition coefficient, log D of the compound at pH 7.4; type: physicochemical
[7] = Protein binding in human plasma; type: ADME, cell-free; conditions: read-out: PPB (converted)
[8] = fAUC (infinity) in rat at 1 mg/kg, iv or 5 mg/kg, po; type: ADME, organism-based; conditions: in vivo
[9] = molecular target: T1, Cytochrome P450 3A4 (Homo sapiens, UniProt P08684); test: Time dependent inhibition of CYP3A4 (unknown origin) at <5 uM using testosterone as substrate; type: ADME
T1 sequence (P08684 whole entry): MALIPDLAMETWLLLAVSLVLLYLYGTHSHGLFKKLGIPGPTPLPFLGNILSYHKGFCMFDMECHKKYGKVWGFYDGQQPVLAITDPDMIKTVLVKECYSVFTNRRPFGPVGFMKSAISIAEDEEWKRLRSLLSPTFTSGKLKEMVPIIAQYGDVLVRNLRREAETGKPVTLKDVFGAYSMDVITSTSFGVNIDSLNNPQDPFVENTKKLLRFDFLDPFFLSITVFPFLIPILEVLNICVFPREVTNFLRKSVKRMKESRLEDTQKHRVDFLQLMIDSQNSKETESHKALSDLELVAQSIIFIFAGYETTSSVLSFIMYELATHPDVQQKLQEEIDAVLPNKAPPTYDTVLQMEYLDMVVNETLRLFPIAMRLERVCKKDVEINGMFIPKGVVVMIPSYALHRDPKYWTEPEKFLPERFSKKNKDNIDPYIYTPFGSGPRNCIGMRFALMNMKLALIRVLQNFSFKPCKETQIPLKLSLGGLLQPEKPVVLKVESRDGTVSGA

[10] = molecular target: T1, Cytochrome P450 3A4; test: Time dependent inhibition of CYP3A4 (unknown origin) at <5 uM pre-incubated for 30 mins followed by midazolam substrate addition in presence of NADPH; type: ADME
[11] = Protein binding in mouse plasma assessed as unbound fraction; type: ADME, cell-free
[12] = species on record: Homo sapiens
[13] = Half-life in dog at 0.5 mg/kg, iv; type: ADME, organism-based, Canis lupus familiaris; conditions: in vivo
[14] = molecular target: alpha1 adrenergic receptor (Homo sapiens, UniProt P35348); test: Displacement of [3H] prazosin from human alpha1 adrenergic receptor at 1 uM measured after 60 mins by scintillation counting method relative to control; conditions: probe [3H] prazosin
Chain of alpha1 adrenergic receptor (P35348 whole entry): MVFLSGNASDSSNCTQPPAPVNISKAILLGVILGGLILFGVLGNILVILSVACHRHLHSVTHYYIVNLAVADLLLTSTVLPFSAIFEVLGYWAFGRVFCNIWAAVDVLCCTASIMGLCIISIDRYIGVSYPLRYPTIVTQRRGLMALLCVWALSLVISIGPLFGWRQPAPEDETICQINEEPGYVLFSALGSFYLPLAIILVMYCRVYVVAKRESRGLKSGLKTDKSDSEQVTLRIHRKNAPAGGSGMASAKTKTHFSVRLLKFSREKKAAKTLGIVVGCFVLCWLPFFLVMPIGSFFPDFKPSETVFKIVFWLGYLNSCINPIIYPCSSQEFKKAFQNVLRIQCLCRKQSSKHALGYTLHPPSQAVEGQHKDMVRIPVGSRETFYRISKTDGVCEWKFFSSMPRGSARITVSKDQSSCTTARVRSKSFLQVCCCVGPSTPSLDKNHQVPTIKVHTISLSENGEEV

[15] = Metabolic stability in rat liver microsomes assessed as compound remaining after 30 mins; type: ADME, Microsome; conditions: read-out: Stability
[16] = Half-life in rat at 1 mg/kg, iv or 5 mg/kg, po; type: ADME, organism-based; conditions: in vivo
[17] = molecular target: T1, Cytochrome P450 3A4; test: Time dependent inhibition of CYP3A4 (unknown origin) at <5 uM pre-incubated for 30 mins followed by testosterone substrate addition in presence of NADPH; type: ADME
[18] = molecular target: T2, Isocitrate dehydrogenase [NADP] cytoplasmic (Homo sapiens, UniProt O75874, R132C); test: Inhibition of human Myc-DDK-tagged IDH1 R132C mutant assessed as reduction in NADPH consumption pre-incubated for 15 mins followed by alpha-ketoglutarate substrate and NADPH addition after 45 mins by diaphorase and resazurin dye based assay
T2 sequence (O75874 2-414 R132C limits assumed): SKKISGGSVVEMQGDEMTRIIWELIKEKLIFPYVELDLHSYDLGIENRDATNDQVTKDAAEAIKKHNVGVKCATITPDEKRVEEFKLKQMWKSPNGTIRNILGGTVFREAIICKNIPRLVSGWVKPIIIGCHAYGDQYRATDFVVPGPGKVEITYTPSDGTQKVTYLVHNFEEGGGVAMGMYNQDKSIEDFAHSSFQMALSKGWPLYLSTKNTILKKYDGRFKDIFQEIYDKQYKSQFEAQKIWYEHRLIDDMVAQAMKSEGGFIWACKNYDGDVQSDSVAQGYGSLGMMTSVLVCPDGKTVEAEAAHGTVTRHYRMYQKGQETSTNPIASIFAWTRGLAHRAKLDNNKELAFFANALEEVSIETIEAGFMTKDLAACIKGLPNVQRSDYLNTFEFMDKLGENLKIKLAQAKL

[19] = molecular target: ATP-dependent translocase ABCB1 (Homo sapiens, UniProt P08183); test: Substrate activity at Pgp (unknown origin) assessed as net efflux ratio by measuring ratio of efflux ratio in MDCK cells harboring MDR1 (unknown origin) to efflux ratio in MDCK cells; type: ADME, cell-based
Chain of ATP-dependent translocase ABCB1 (P08183 whole entry): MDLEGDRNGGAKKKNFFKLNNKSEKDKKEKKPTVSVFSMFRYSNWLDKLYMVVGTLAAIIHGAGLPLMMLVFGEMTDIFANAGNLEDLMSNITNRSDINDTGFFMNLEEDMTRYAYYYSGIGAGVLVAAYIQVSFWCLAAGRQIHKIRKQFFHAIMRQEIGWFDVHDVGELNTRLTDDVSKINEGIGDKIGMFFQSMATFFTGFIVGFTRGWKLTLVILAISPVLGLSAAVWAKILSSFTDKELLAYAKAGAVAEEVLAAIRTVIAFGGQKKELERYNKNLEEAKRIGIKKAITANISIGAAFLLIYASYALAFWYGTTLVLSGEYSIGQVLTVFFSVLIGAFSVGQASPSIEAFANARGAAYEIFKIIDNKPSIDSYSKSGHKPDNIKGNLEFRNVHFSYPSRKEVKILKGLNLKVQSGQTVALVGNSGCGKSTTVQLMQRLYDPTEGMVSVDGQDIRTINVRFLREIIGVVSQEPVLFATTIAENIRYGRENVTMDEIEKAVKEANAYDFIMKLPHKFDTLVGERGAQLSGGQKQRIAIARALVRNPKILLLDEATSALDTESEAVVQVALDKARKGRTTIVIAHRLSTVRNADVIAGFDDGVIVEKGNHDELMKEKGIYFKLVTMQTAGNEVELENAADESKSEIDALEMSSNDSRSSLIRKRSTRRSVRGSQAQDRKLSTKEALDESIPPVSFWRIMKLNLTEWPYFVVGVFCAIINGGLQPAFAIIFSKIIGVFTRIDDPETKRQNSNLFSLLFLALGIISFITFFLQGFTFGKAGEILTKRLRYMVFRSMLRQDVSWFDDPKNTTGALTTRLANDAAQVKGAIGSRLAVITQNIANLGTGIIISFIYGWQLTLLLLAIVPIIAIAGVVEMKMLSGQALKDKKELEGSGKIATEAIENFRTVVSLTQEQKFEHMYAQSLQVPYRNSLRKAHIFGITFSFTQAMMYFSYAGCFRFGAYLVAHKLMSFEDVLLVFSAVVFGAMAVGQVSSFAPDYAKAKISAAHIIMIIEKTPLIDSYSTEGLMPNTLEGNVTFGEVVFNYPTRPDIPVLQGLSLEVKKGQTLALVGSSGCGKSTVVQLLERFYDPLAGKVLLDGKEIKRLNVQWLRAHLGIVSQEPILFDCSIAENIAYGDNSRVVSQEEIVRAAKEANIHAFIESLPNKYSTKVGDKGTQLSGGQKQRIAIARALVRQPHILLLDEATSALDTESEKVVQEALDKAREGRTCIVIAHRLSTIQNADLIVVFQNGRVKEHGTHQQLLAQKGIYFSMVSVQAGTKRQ

[20] = molecular target: NET (noradrenaline transporter) (Homo sapiens, UniProt P23975); test: Displacement of [3H]nisoxetine from recombinant human NET receptor at 10 uM after 120 mins by scintillation counting method relative to control; conditions: probe [3H]nisoxetine
Chain of NET (noradrenaline transporter) (P23975 whole entry): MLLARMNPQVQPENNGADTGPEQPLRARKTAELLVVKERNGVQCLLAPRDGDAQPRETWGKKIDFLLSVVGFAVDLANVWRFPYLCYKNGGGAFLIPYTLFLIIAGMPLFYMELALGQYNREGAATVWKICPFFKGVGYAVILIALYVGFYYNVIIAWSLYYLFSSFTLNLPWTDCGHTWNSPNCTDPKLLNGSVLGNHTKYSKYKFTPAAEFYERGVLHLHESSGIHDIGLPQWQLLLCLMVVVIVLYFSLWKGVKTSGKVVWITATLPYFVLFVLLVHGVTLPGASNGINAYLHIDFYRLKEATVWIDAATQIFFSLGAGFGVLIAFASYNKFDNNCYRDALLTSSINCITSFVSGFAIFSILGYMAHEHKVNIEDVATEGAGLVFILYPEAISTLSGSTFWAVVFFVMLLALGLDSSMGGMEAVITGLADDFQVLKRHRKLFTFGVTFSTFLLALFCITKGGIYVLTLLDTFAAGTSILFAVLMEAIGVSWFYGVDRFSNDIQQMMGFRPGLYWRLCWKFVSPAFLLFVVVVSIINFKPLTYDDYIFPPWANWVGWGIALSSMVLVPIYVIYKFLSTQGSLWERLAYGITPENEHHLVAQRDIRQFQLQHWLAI

[21] = molecular target: T2, Isocitrate dehydrogenase [NADP] cytoplasmic; test: Inhibition of human Myc-DDK-tagged IDH1 R132C mutant expressed in human U87MG cells assessed as reduction in 2-HG levels after 24 hrs by RapidFire high-throughput mass spectrometry assay; type: cell-based
[22] = tested on: MDR1 (P-gp); test: Apparent permeability from apical side to basolateral side in MDCK cells harboring MDR1 (unknown origin); type: ADME, cell-based, Canis lupus familiaris; conditions: dog
[23] = Efflux ratio of apparent permeability from basolateral side to apical side over apical side to basolateral side in MDCK cells; type: ADME, cell-based, Canis lupus familiaris; conditions: dog
[24] = Metabolic stability in dog liver microsomes assessed as compound remaining after 30 mins; type: ADME, Canis lupus familiaris, Microsome; conditions: read-out: Stability
[25] = molecular target: T2, Isocitrate dehydrogenase [NADP] cytoplasmic; test: Inhibition of IDH1 R132C mutant in human HCT116 cells assessed as reduction in 2-HG levels after 24 hrs by RapidFire high-throughput mass spectrometry assay; type: cell-based
[26] = tested on: Mus musculus; test: In vivo inhibition of IDH1 R132C mutant in human HCT116 cells xenografted in po dosed BALB/c nude mouse assessed as reduction in tumor 2-HG level administered at 12 hrs intervals and measured up to 24 hrs post last dose by LC-MS analysis; type: functional
[27] = Total AUC (infinity) in dog at 0.5 mg/kg, iv; type: ADME, organism-based, Canis lupus familiaris; design: dose 0.5 mg/kg, time AUCmax, route intravenous; conditions: in vivo
[28] = molecular target: T1, Cytochrome P450 3A4; test: Time dependent inhibition of CYP3A4 (unknown origin) at <5 uM pre-incubated for 30 mins followed by midazolam substrate addition in absence of NADPH; type: ADME
[29] = Permeability of the compound by PAMPA; type: ADME; conditions: read-out: permeability
[30] = Oral bioavailability in rat at 5 mg/kg; type: ADME, organism-based; conditions: in vivo
[31] = Efflux ratio of apparent permeability from basolateral side to apical side over apical side to basolateral side in human Caco2 cells; type: ADME, cell-based; conditions: Caco-2
[32] = Clearance in mouse at 1 mg/kg, iv or 5 mg/kg, po; type: ADME, organism-based; conditions: in vivo
[33] = fAUC (infinity) in dog at 0.5 mg/kg, iv; type: ADME, organism-based, Canis lupus familiaris; conditions: in vivo
[34] = Total AUC (infinity) in mouse at 1 mg/kg, iv or 5 mg/kg, po; type: ADME, organism-based; conditions: in vivo
[35] = molecular target: Isocitrate dehydrogenase [NADP], mitochondrial (Homo sapiens, UniProt P48735, R172K); test: Inhibition of IDH2 R172K mutant (unknown origin)
Chain of Isocitrate dehydrogenase [NADP], mitochondrial (Homo sapiens, UniProt P48735, R172K) (P48735 40-452 R172K limits assumed): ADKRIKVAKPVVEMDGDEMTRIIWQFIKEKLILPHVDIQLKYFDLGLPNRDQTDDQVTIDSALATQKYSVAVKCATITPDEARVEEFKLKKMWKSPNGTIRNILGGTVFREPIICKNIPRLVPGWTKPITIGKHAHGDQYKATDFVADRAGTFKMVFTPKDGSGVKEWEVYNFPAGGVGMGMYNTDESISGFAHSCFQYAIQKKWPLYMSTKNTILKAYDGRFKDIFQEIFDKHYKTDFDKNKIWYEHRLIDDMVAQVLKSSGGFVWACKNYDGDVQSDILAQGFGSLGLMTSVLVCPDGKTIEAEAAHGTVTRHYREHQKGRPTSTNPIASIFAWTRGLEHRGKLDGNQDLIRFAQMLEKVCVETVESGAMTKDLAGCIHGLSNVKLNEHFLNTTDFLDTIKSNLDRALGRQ

[36] = molecular target: Isocitrate dehydrogenase [NADP], mitochondrial (Homo sapiens, UniProt P48735, R140Q); test: Inhibition of IDH2 R140Q mutant (unknown origin)
Chain of Isocitrate dehydrogenase [NADP], mitochondrial (Homo sapiens, UniProt P48735, R140Q) (P48735 40-452 R140Q limits assumed): as the sequence (P48735 40-452 R172K limits assumed) above, with R101Q, K133R counted along it

[37] = Free drug concentration in tumor of human HCT116 harboring R132C mutant xenografted in po dosed BALB/c nude mouse administered at 12 hrs intervals and measured after 4 to 24 hrs post last dose; type: ADME, organism-based, Neoplasm; conditions: in vivo
[38] = Metabolic stability in mouse liver microsomes assessed as compound remaining after 30 mins; type: ADME, Microsome; conditions: read-out: Stability
[39] = Protein binding in rat plasma; type: ADME, cell-free; conditions: read-out: PPB (converted)
[40] = Total AUC (infinity) in rat at 1 mg/kg, iv or 5 mg/kg, po; type: ADME, organism-based; conditions: in vivo
[41] = Apparent permeability from apical side to basolateral side in MDCK cells; type: ADME, cell-based, Canis lupus familiaris; conditions: dog
[42] = tested on: MDR1 (P-gp); test: Efflux ratio of apparent permeability from basolateral side to apical side over apical side to basolateral side in MDCK cells harboring MDR1 (unknown origin); type: ADME, cell-based, Canis lupus familiaris; conditions: dog
[43] = Protein binding in dog plasma; type: ADME, cell-free, Canis lupus familiaris; conditions: read-out: PPB (converted)
[44] = molecular target: Isocitrate dehydrogenase [NADP] cytoplasmic (Homo sapiens, UniProt O75874, R132S); test: Inhibition of human Myc-DDK-tagged IDH1 R132S mutant expressed in human U87MG cells assessed as reduction in 2-HG levels after 24 hrs by RapidFire high-throughput mass spectrometry assay; type: cell-based
Chain of Isocitrate dehydrogenase [NADP] cytoplasmic (Homo sapiens, UniProt O75874, R132S) (O75874 2-414 R132S limits assumed): as the sequence (O75874 2-414 R132C limits assumed) above, with C131S counted along it

[45] = tested on: Mus musculus; type: functional; conditions: BALB/c, HCT-116, po
[46] = tested on: Mus musculus; type: functional, BALB/c
[47] = molecular target: Isocitrate dehydrogenase [NADP] cytoplasmic (Homo sapiens, UniProt O75874, R132L); test: Inhibition of human Myc-DDK-tagged IDH1 R132L mutant expressed in human U87MG cells assessed as reduction in 2-HG levels after 24 hrs by RapidFire high-throughput mass spectrometry assay; type: cell-based
Chain of Isocitrate dehydrogenase [NADP] cytoplasmic (Homo sapiens, UniProt O75874, R132L) (O75874 2-414 R132L limits assumed): as the sequence (O75874 2-414 R132C limits assumed) above, with C131L counted along it

[48] = Oral bioavailability in mouse at 5 mg/kg; type: ADME, organism-based; conditions: in vivo

COc1nc(N[C@@H](C)c2cc3cc(Cl)ccc3[nH]c2=O)ncc1C#N
Cmax [1]: 5.9 µM
solubility kinetic [2]: 10.5 µM (≈ 3.74 µg/mL)
clearance [3]: 7.7 mL/min/kg
activity at 10 µM [4]: 15%
Cmax [5]: 3.8 µM
logD [6]: 2.68
fraction unbound [7]: 0.019
fAUC [8]: 0.459 µM·h
TDI [9]: Not Active
TDI [10]: Not Active
fraction unbound [11]: 0.019
Ratio IC50 [12]: 200
half-life [13]: 5.2 h
inhibition at 1 h, 1 µM [14]: > 50%
remaining at 0.5 h [15]: 94 to 100%
half-life [16]: 2.2 h
TDI [17]: Not Active
IC50 [18]: 130 nM
Ratio [19]: 1.89
inhibition at 2 h, 10 µM [20]: > 50%
IC50 [21]: 130 nM
Papp A→B [22]: 8.35 ×10⁻⁶ cm/s
efflux ratio [23]: 0.63
remaining at 0.5 h [24]: 94%
IC50 [25]: 233 nM
fIC50 [26]: 46 nM
AUC(0-inf) [27]: 3.3 µM·h
TDI [28]: Not Active
Papp [29]: 18 ×10⁻⁶ cm/s
bioavailability [30]: 81%
efflux ratio [31]: 1
clearance [32]: 3.3 mL/min/kg
fAUC [33]: 0.123 µM·h
AUC(0-inf) [34]: 107 µM·h
IC50 [35]: 33800 nM
IC50 [36]: 76600 nM
Drug uptake(free) [37]: Dose-dependent effect
remaining at 0.5 h [38]: 100 to 106%
fraction unbound [39]: 0.0203
AUC(0-inf) [40]: 22.6 µM·h
Papp A→B [41]: 12.6 ×10⁻⁶ cm/s
efflux ratio [42]: 1.19
fraction unbound [43]: 0.0369
IC50 [44]: 1490 nM
inhibition in vivo at 25 mg/kg [45]: > 90%
fIC50 [46]: 49 nM
IC50 [47]: 60 nM
bioavailability [48]: 130%
